Reference: PMC9606955, “In Vitro Activity of Essential Oils Distilled from Colombian Plants against Candida auris and Other Candida Species with Different Antifungal Susceptibility Profiles” (Molecules, 2022)
Values after ≈ are worked out from the molar mass of the structure shown. “Also recorded” adds a separate entry of the source.

What was measured:
C. krusei ATCC 6258 = assay: MIC, CLSI M27 broth microdilution; type: cell-based, Candida krusei; conditions: C. krusei ATCC 6258, EOs and terpenes
Source text: (§1) The fungal strains used in this study were C. albicans ATCC 10231, C. albicans ATCC 64550, C. parapsilosis ATCC 22019, C. tropicalis ATCC 750, C. tropicalis ATCC 200956 (resistant to azoles and AMB), C. glabrata LMDM 34 (resistant to echinocandins), C. metapsilosis MUM 15.12, C. orthopsilosis MUM 17.13, C. lusitaniae MUM 17.08, C. krusei ATCC 6258 (Issatchenkia orientalis ATCC 6258), and C. auris CDC B11903. Additionally, nine clinical isolates were included: C. parapsilosis Synlab 406 (FLC-resistant) and eight C. auris isolates identified by MALDI-TOF MS (Bruker Daltonics, Bremen, Germany) according to Zhao et al.. These yeasts were cultured on Sabouraud Dextrose Agar (SDA; Sigma-Aldrich, St. Louis, MO, USA) for 24 h at 35 °C.
(§2) Antifungal susceptibility testing was performed according to Clinical and Laboratory Standards Institute M27, 4th Edition (CLSI standard M27, 4th Edition). Some modifications were applied for evaluation of the antifungal activity of EOs and terpenes. Initially, a screening was carried out to determine the antifungal activity of the EOs and of commercial terpenes. Stock concentrations of EOs and terpenes were prepared at 512 µg/mL and an inoculum of 2.5 × 10^3 CFU/mL of each yeast was prepared in RPMI 1640-MOPS (Sigma- Aldrich St. Louis, MO, USA). Thereafter, 100 µL of each stock solution of EOs or terpenes was dispensed in 96-well microdilution plates (Corning®, Costar®, NY, USA) and 100 µL of each yeast inoculum was added. […] Microdilution plates were incubated at 35 °C and, after 24 h, the presence or absence of growth was visually checked using a manual mirror viewer and then compared with the amount of growth in the control (no EO or terpene). Compounds able to inhibit yeast growth were tested to determine the minimal inhibitory concentration (MIC) as follows: 100 µL of 10 two-fold dilutions of the EOs or commercial terpenes was dispensed in 96-well microplates and the yeast inoculum was added. Final concentrations of the EOs or terpenes ranged from 0.5 µg/mL to 256 µg/mL. Microdilution plates were incubated at 35 °C for 24 h. MICs were visually determined at the lowest concentration that produced visual inhibition compared to the growth control. The assays were performed at least three times in duplicate on different days. The results were expressed as geometric means (GM) and ranges. As an antifungal susceptibility testing control, the activity of ITC and AMB against the reference strains C. krusei ATCC 6258 and C. parapsilosis ATCC 22019 was evaluated in all experiments following the CLSI standard M27, 4th Edition. It was mandatory that the MIC values remained in the accepted range.

[1] = test system: C. tropicalis ATCC 200956; assay: MIC, CLSI M27 broth microdilution; type: cell-based, Candida tropicalis; conditions: C. tropicalis ATCC 200956, EOs and terpenes
Source text: as §1, §2

[2] = test system: C. metapsilosis MUM 15.12; assay: MIC, CLSI M27 broth microdilution; type: cell-based, Candida metapsilosis; conditions: Lodderomyces metapsilosis, MUM15.12; C. metapsilosis MUM 17.13 (Table 3); EOs and terpenes; 24 h; top concentration 256 µg/mL; read-out: GM MIC
Source text: as §1, §2

[3] = test system: C. orthopsilosis MUM 17.13; assay: MIC, CLSI M27 broth microdilution; type: cell-based, Candida orthopsilosis; conditions: Lodderomyces orthopsilosis, MUM17.13; C. orthopsilosis MUM 15.12 (Table 3); EOs and terpenes; 24 h; top concentration 256 µg/mL; read-out: GM MIC
Source text: as §1, §2

C. lusitaniae MUM 17.08 = assay: MIC, CLSI M27 broth microdilution; type: cell-based, Candida lusitaniae; conditions: C. lusitaniae MUM 17.08, EOs and terpenes
Source text: as §1, §2

C. auris CDC B11903 [4] = assay: MIC, CLSI M27 broth microdilution; type: cell-based, Candida auris; conditions: Candidozyma auris, CDCB11903; C. auris CDC B11903; EOs and terpenes; 24 h; top concentration 256 µg/mL; read-out: GM MIC
Source text: as §1, §2

C. auris Ca 13 = assay: MIC, CLSI M27 broth microdilution; type: cell-based, Candida auris; conditions: Candidozyma auris, CA13; C. auris Ca 13; EOs and terpenes; 24 h; top concentration 256 µg/mL; read-out: GM MIC
Source text: as §1, §2

C. auris Ca 17 = assay: MIC, CLSI M27 broth microdilution; type: cell-based, Candida auris; conditions: Candidozyma auris, CA17; C. auris Ca 17; EOs and terpenes; 24 h; top concentration 256 µg/mL; read-out: GM MIC
Source text: as §1, §2

C. auris Ca 1 = assay: MIC, CLSI M27 broth microdilution; type: cell-based, Candida auris; conditions: C. auris Ca 1, EOs and terpenes
Source text: as §1, §2

C. auris Ca 32 = assay: MIC, CLSI M27 broth microdilution; type: cell-based, Candida auris; conditions: Candidozyma auris, CA32; C. auris Ca 32; EOs and terpenes; 24 h; top concentration 256 µg/mL; read-out: GM MIC
Source text: as §1, §2

C. auris Ca 41 = assay: MIC, CLSI M27 broth microdilution; type: cell-based, Candida auris; conditions: Candidozyma auris, CA41; C. auris Ca 41; EOs and terpenes; 24 h; top concentration 256 µg/mL; read-out: GM MIC
Source text: as §1, §2

C. auris Ca 45 = assay: MIC, CLSI M27 broth microdilution; type: cell-based, Candida auris; conditions: Candidozyma auris, CA45; C. auris Ca 45; EOs and terpenes; 24 h; top concentration 256 µg/mL; read-out: GM MIC
Source text: as §1, §2

C. auris Ca 46 = assay: MIC, CLSI M27 broth microdilution; type: cell-based, Candida auris; conditions: Candidozyma auris, CA46; C. auris Ca 46; EOs and terpenes; 24 h; top concentration 256 µg/mL; read-out: GM MIC
Source text: as §1, §2

C. auris Ca 9 = assay: MIC, CLSI M27 broth microdilution; type: cell-based, Candida auris; conditions: Candidozyma auris, CA9; C. auris Ca 9; EOs and terpenes; 24 h; top concentration 256 µg/mL; read-out: GM MIC
Source text: as §1, §2

[5] = test system: C. parapsilosis Synlab 406; assay: MIC, CLSI M27 broth microdilution; type: cell-based, Candida parapsilosis; conditions: Lodderomyces parapsilosis, SYNLAB406; C. parapsilosis Synlab 406; EOs and terpenes; 24 h; top concentration 256 µg/mL; read-out: GM MIC
Source text: as §1, §2

Candida spp. = assay: Screening of antifungal activity at 256 µg/mL against twenty strains; type: cell-based; conditions: screening at 256 µg/mL
Source text: as §1
Antifungal susceptibility testing was performed according to Clinical and Laboratory Standards Institute M27, 4th Edition (CLSI standard M27, 4th Edition). Some modifications were applied for evaluation of the antifungal activity of EOs and terpenes. Initially, a screening was carried out to determine the antifungal activity of the EOs and of commercial terpenes. Stock concentrations of EOs and terpenes were prepared at 512 µg/mL and an inoculum of 2.5 × 10^3 CFU/mL of each yeast was prepared in RPMI 1640-MOPS (Sigma- Aldrich St. Louis, MO, USA). Thereafter, 100 µL of each stock solution of EOs or terpenes was dispensed in 96-well microdilution plates (Corning®, Costar®, NY, USA) and 100 µL of each yeast inoculum was added. […] MICs were visually determined at the lowest concentration that produced visual inhibition compared to the growth control. […] The results were expressed as geometric means (GM) and ranges. As an antifungal susceptibility testing control, the activity of ITC and AMB against the reference strains C. krusei ATCC 6258 and C. parapsilosis ATCC 22019 was evaluated in all experiments following the CLSI standard M27, 4th Edition. […]

C. albicans ATCC 10231 = assay: Time–kill assay; type: cell-based, Candida albicans; conditions: 1X and 2X MIC, 24 h
Description: (§3) Time–kill assays with the L. origanoides (thymol + p-cymene) chemotype (Code 0018) EO, thymol, FLC, and AMB against C. albicans ATCC 10231, C. tropicalis ATCC 200956, and C. auris CDC B11903 were performed according to the protocol published by Klebser et al. with some modifications. […] Absorbance at λ = 490 nm was measured every 2 h with a Multiskan SkyHigh Microplate Spectrophotometer. AMB and FLC were included as fungicidal and fungistatic control drugs, respectively.

[6] = test system: C. tropicalis ATCC 200956; assay: Time–kill assay; type: cell-based, Candida tropicalis; conditions: 1X and 2X MIC, 24 h
Description: as §3

C. auris CDC B11903 [7] = assay: Time–kill assay; type: cell-based, Candida auris
Description: as §3

C. auris = test system: C. auris; parameters: method as in PMID 31980703; conditions: cited from earlier work
Cytotoxicity, MTT assay = conditions: human, HaCaT keratinocyte cells
Description: Cells were cultured in Dulbecco’s Modified Eagle Medium (DMEM; Sigma-Aldrich, St. Louis, MO, USA) supplemented with 10% fetal bovine serum (Invitrogen, Carlsbad, CA, USA), 1% penicillin, streptomycin, and neomycin (Invitrogen, Carlsbad, CA, USA), and 1% L-glutamine (Invitrogen, Carlsbad, CA, USA) at 37 °C in a humidified atmosphere of 5% CO2. […] Afterwards, the culture medium was removed and 3-(4.5-dimethylthiazol-2-yl)-2.5-diphenyltetrazolium bromide (MTT) (Sigma-Aldrich, St. Louis, MO, USA) at 5 mg/mL was added at 37 °C for 2 h. Subsequently, DMSO was added to dissolve the formazan crystals. Finally, the absorbances were measured with a Multiskan SkyHigh Microplate Spectrophotometer (Thermo Fisher Scientific, Waltham, MA, USA) at λ = 570 nm. The CC50 values were obtained by linear regression analysis with concentration–response curves, which were performed with absorbance data using GraphPad Prism software (Prism 9.3.0, San Diego, CA, USA). The assays were conducted at two separate times in triplicate. The data were expressed as means.

Structure (SMILES): Cc1ccc(C(C)C)c(O)c1 [Thymol, thymol]
- Range MIC (C. krusei ATCC 6258): 128 to 256 µg/mL
- MIC (C. krusei ATCC 6258; Pichia kudriavzevii, ATCC6258, 24 h, top concentration 256 µg/mL, read-out: GM MIC): 181 µg/mL (≈ 1200 µM)
- Range MIC [1]: 64 to 128 µg/mL
- MIC ([1]; Candida tropicalis, ATCC200956, 24 h, top concentration 256 µg/mL, read-out: GM MIC): 90.5 µg/mL (≈ 602 µM)
- MIC [2]: 128 µg/mL (≈ 852 µM)
- MIC [3]: 128 µg/mL (≈ 852 µM)
- Range MIC (C. lusitaniae MUM 17.08): 64 to 128 µg/mL
- MIC (C. lusitaniae MUM 17.08; Clavispora lusitaniae, MUM17.08, 24 h, top concentration 256 µg/mL, read-out: GM MIC): 90.5 µg/mL (≈ 602 µM)
- MIC (C. auris CDC B11903 [4]): 64 µg/mL (≈ 426 µM)
- MIC (C. auris Ca 13): 128 µg/mL (≈ 852 µM)
- MIC (C. auris Ca 17): 64 µg/mL (≈ 426 µM)
- Range MIC (C. auris Ca 1): 128 to 256 µg/mL
- MIC (C. auris Ca 1; Candidozyma auris, CA1, 24 h, top concentration 256 µg/mL, read-out: GM MIC): 181 µg/mL (≈ 1200 µM)
- MIC (C. auris Ca 32): 64 µg/mL (≈ 426 µM)
- MIC (C. auris Ca 41): 64 µg/mL (≈ 426 µM)
- MIC (C. auris Ca 45): 64 µg/mL (≈ 426 µM)
- MIC (C. auris Ca 46): 64 µg/mL (≈ 426 µM)
- MIC (C. auris Ca 9): 128 µg/mL (≈ 852 µM)
- MIC [5]: 64 µg/mL (≈ 426 µM)
- antifungal activity in screening (Candida spp.): active against all tested Candida spp.
- effect in time–kill assay (C. albicans ATCC 10231): fungicidal
- effect in time–kill assay [6]: fungicidal
- effect on growth in time–kill assay (C. auris CDC B11903 [7]; 0.5, 1 and 2X MIC, 24 h): not affected; also recorded: did not show fungicidal activity
- lag-phase in time–kill assay (C. auris CDC B11903 [7]; 2X MIC): extended lag-phase
- MIC Range (C. auris): 156 to 625 µg/mL
- CC50 at 24 h (Cytotoxicity, MTT assay): 428 µg/mL (≈ 2850 µM)
